US20040087597A1, “Preventives and remedies for complications of diabetes” (priority 2000, published 2004)

How the values were obtained:
[1] = tested on: aortic smooth muscle cells of rats; assay: Secretion of osteopontin protein into conditioned medium from aortic smooth muscle cells of rats (Western blotting); type: cell-based, rat; settings: normal glucose; pitavastatin calcium 0.03 and 0.3 μM, atorvastatin 0.3 and 3 μM; 48 hours; FIG. 1
Method: The effect of pitavastatin calcium and atorvastatin on the secretion of osteopontin protein into the conditioned culture medium from aortic smooth muscle cells of rats cultured under the normal glucose concentration were measured according to the method described below.
At first, aortic smooth muscle cells of rats (5 to 10 passage culture) were seeded in a 6-well culture plate and the confluent cultures were attained by culturing in low glucose (1000 mg/L) Dulbecco's modified Eagle's medium (DMEM) with 10% fetal bovine serum (FBS: BioWhittaker Co. Ltd.) under 5% CO2 atmosphere at 37° C. […]
After centrifugation, sedimented DE52 gels were washed several times with the same buffer, and 60 μL of 0.2M Tris hydrochloride buffer solution (pH 6.8) containing 5% of 2-mercaptoethanol, 4% of SDS, […], 20% of glycerol and 0.01% of bromophenol blue was added, and heat-treated for 5 minutes at 95° C. […] Chemiluminescences were detected on X-ray film using ECL™ (Amersham Pharmacia Biotech Co. Ltd.). The density of the bands were analyzed according to NIH Image. […]
The density of osteopontin protein measured with NIH Image Analysis for various concentration of pitavastatin calcium are shown in FIG. 1(a), and the density of osteopontin protein measured with NIH Image Analysis for various concentration of atorvastatin are shown in FIG. 1(b).

[2] = tested on: osteopontin mRNA; assay: Expression of osteopontin mRNA in the kidney and blood vessels of STZ-induced diabetic rats and normal rats (Northern blotting); type: in vivo, rat; settings: for Kidney OPNmRNA/18S / Aorta OPNmRNA/18S / Aorta % Inhibition / Kidney % Inhibition: oral 3 mg/kg once a day, 7 days; for Kidney OPNmRNA/18S / Aorta OPNmRNA/18S: mean ± standard deviation, 3 mg/kg
Method: The effects of pitavastatin calcium on the expression of osteopontin mRNA in the kidney and blood vessels of STZ-induced diabetic rats were investigated according to the method described below.
Namely, 35 mg per kg of body weight of STZ dissolved in the concentration of 50 mg/mL of physiological saline was injected into the tail vein of male Wistar rats (body weight: about 300 g), and the animals were orally administered 1 mL/kg of body weight of 0.5% carboxymethylcellulose solution containing the test drug (pitavastatin calcium) in the concentration of 3mg/mL with a gastric sonde. Thereafter the oral administration was performed once a day by same volume and at fixed time during the experiment. The same volume of only 0.5% carboxymethylcellulose was given by the forced oral administration for the control group. The venous blood was withdrawn from the tail vein on the second day of the experiment and the presence of 200 mg/dL or above of the blood sugar level was confirmed.
24 hours after 7 days administration, the blood was withdrawn under the ether anesthesia, and kidneys and thoracic aorta were isolated. The predetermined amount of the tissue piece in ISOGEN (Wako Pure Chemicals K.K.) was homogenized in a polytron homogenizer and the total RNA was extracted. The total RNA thus obtained was precipitated by using isopropanol. The precipitate was washed with 70% ice cold ethanol and stored at −80° C. in 70% ethanol.
Osteopontin mRNA in the total RNA obtained was detected by the conventional Northern blotting method. That is to say that the total RNA precipitated with 70% ethanol was subjected to centrifugation at 15000 rpm, the precipitate was dried at room temperature after decanting the supernatant and dissolved in a small amount of TE buffer (10 mM Tris-HCl buffer-1 mM EDTA solution). 10 μL out of the solution thus obtained was diluted with 990 μL of TE buffer solution, and the amount of RNA was calculated by measuring the absorbance at 260 nm ultraviolet light of the solution. 40% solution of deionized glyoxal (3.5 μL), 0.1 M of NaHPO4 buffer solution (2.4 μL) and dimethylsulfoxide (11.8 μL) were added to the predetermined amount (10 or 20 μg) of the total RNA (final volume: 6 μL), heated at 50° C. for 1 hour and the total RNA was denatured. 6.3 μL of 10 mM sodium phosphate buffer solution (pH: 6.8) containing 50% glycerol and 0.4% bromophenol blue was added to the solution after the solution was cooled to the room temperature, and then RNA was subjected to electrophoresis using 1.5% agarose gel. RNA was blotted from agarose to nylon membrane in a conventional fashion by using 20×saline-sodium citrate (SSC). The blotted nylon membrane was washed with 2×SSC, and RNA was fixed on the nylon membrane by heating it to 80° C. in vacuo. DNA fragment encoding osteopontin was digested from pCRIIrOP vector with Eco R1 endonuclease and purified with Probe Quant™G-50 Micro Columns (Amersham Pharmacia Biotech Co. Ltd.). DNA fragment encoding Osteopontin thus obtained was hybridized for overnight together with the nylon membrane at 65° C. with Rediprime™ II (Amersham Pharmacia Biotech Co. Ltd.) radioactive probe labeled with ^32P radioisotope. Radioisotope level of the probe bound to the nylon membrane was detected on the X-ray film and the density of the bands were analyzed according to NIH Image. […] was used as the RNA internal standard and the amount of the expression was represented with the comparative intensities of the density of the bands. Osteopontin mRNA was similarly measured in the normal rat experiment.
In Table 1, OPN mRNA/18S represents the ratio of the density of osteopontin mRNA to the density of […] based on the NIH Image Analysis and % inhibition represents that to the respective control groups. The values of OPNmRNA/18S are mean ± standard deviation.

[3] = tested on: aortic smooth muscle cells of rats; assay: Expression of osteopontin mRNA in aortic smooth muscle cells of rats, with or without mevalonic acid (northern blotting); type: cell-based, rat; settings: FIG. 2(a)
Method: (§1) The effect of mevalonic acid on the suppression with pitavastatin calcium for the expression of osteopontin mRNA and the secretion of osteopontin protein in aortic smooth muscle cells of rats were measured according to the method described below.
(§2) Aortic smooth muscle cells of rats (5 to 10 passage culture) were seeded in a 6-well culture plate and the confluent cultures were attained by culturing in low glucose (1000 mg/L) DMEM with 10% FBS under 5% CO2 atmosphere at 37° C. Thereafter, the medium was replaced with the medium with pitavastatin calcium (8 μM) and/or mevalonic acid (100 μM), and the cells were cultured for another 48 hours. The medium was again replaced with 1.5 mL of FBS-free medium per well, and the cells were cultured further for 48 hours.
After the cultivation, the cells adhered to the culture plate were homogenized together with ISOGEN, RNA were extracted exactly as in Example 1, and the amount of osteopontin mRNA was analyzed by northern blotting method.
(§3) The above measurements were carried out in the three cases when pitavastatin calcium and mevalonic acid were not added, when only pitavastatin calcium was added, and when both pitavastatin calcium and mevalonic acid were added.

[4] = tested on: aortic smooth muscle cells of rats; assay: Secretion of osteopontin protein from aortic smooth muscle cells of rats, with or without mevalonic acid (western blotting); type: cell-based, rat; settings: FIG. 2(b)
Method: as §1, §2
At the same time, the conditioned medium was collected, osteopontin protein was absorbed on DE52, subjected to electrophoresis exactly as in Example 2, and the amount of the secreted osteopontin protein was analyzed by western blotting method.
as §3

[5] = STZ-induced diabetic rats with drug administration, versus diabetic control
[6] = healthy rats with drug administration, versus healthy control
[7] = rats with drug administration, listed as Pitavastatin calcium
[8] = pitavastatin calcium 8 μM alone, 48 hours
[9] = pitavastatin calcium 8 μM with addition of mevalonic acid 100 μM

Compound | Amount of the secretion of osteopontin protein into the conditioned medium [1] | Kidney OPNmRNA/18S ([2]; STZ-induced diabetic rats with drug administration, p = 0.016 vs control) | Kidney OPNmRNA/18S ([2]; STZ-induced diabetic rats with drug administration, p = 0.016 vs control, listed as Pitavastatin calcium) | Aorta OPNmRNA/18S ([2]; STZ-induced diabetic rats with drug administration, p = 0.036 vs control) | Aorta OPNmRNA/18S ([2]; STZ-induced diabetic rats with drug administration, p = 0.036 vs control, listed as Pitavastatin calcium) | Aorta % Inhibition [2, 5] [%] | Kidney % Inhibition [2, 5] [%] | Influence on the expression of osteopontin in the kidney and the aorta ([2]; healthy rats) | Aorta % Inhibition [2, 6] [%] | Kidney % Inhibition [2, 6] [%] | Aorta OPNmRNA/18S ([2]; rats with drug administration) | Kidney OPNmRNA/18S ([2]; rats with drug administration) | Aorta OPNmRNA/18S [2, 7] | Kidney OPNmRNA/18S [2, 7] | Expression of osteopontin mRNA (ratio to 18S) [3, 8] | Suppressive effect on the expression of osteopontin mRNA [3, 9] | Secretion of osteopontin protein [4, 8] | Suppressive effect on the secretion of osteopontin protein [4, 9]
CC(C)c1c(C(=O)Nc2ccccc2)c(-c2ccccc2)c(-c2ccc(F)cc2)n1CC[C@@H](O)C[C@@H](O)CC(=O)O [atorvastatin] | inhibited with the statistical significance |  |  |  |  |  |  |  |  |  |  |  |  |  |  |  |  | 
(+)-bis{(3R, 5S, 6E)-7-[2-cyclopropyl4-(4-fluorophenyl)-3-quinolyl]-3,5-dihydroxy-6-heptenoic acid}-calcium [pitavastatin calcium] | inhibited with the statistical significance | 1.933 ± 0.874 | 1.933 | 1.300 | 1.300 | 59.4 | 40.2 | did not influence | −1.4 | −24.1 | 2.433 ± 0.929 | 1.667 ± 0.321 | 2.433 | 1.667 | suppresses | disappear | suppresses | disappear
